According to patent US20150132342A1, “NOVEL IMMUNE ACTIVATORS: SUBSTITUTE 4-AMINOQUINAZOLINES” (The Regents of the University of California, priority 2013, published 2015):

Legend:
mouse BMDC = assay: MTT viability of mouse BMDC; type: cell-based; conditions: 10 μM, 18 h incubation
human PBMC [1] = assay: IL-8 release in human PBMC (ELISA); type: cell-based
Experimental: In vitro activities in human peripheral blood mononuclear cells (PBMC). Human PBMC were isolated from buffy coats obtained from the San Diego Blood Bank (San Diego, Calif.) as described previously.^5,6 PBMC (1×10^6/mL) were incubated with various compounds in complete RPMI (Omega Scientific) for 18 h at 37° C., 5% CO2 and culture supernatants were collected. The levels of IL-8 in the supernatants were determined by ELISA (BD Biosciences).

mBMDC [2] = assay: IL-6 induction in mouse bone marrow derived dendritic cells (wild type or gene deficient); type: cell-based
Text: Animals. Seven to 9 week-old C57BL/6 (wild type, WT) and Cd14^−/− (C57BL/6 background) mice were purchased from the Jackson Laboratories (Bar Harbor, Mass.). Tlr4^−/− mice (C57BL/6 background) were a gift from Dr. Shizuo Akira (Osaka University, Japan) and were backcrossed for 10 generations onto the C57BL/6 background at University of California, San Diego (UCSD). MD-2^−/− mice (C57BL/6 background) were originally generated by Dr. K. Miyake (University of Tokyo, Tokyo, Japan) and were kindly provided by Dr. L. Hajjar (University of Washington, Seattle, Wash.). Human TLR4 transgenic mice on murine TLR4/MD-2 null C57BL/6 background were kindly provided by Dr. L. Hajjar.^3 All animal experiments were approved by the UCSD Institutional Animal Care and Use Committee.
In vitro cytokine induction in bone marrow derived dendritic cells (BMDC) and macrophages (BMDM). BMDC or BMDM were prepared from C57BL/6 mice as described.^4 BMDC or BMDM (10^5 cells per well) were plated in 96-well plates in 200 μl complete RPMI1640 (Omega Scientific, Tarzana, Calif.) supplemented with 10% fetal calf serum (Sigma Aldrich), 100 U/mL penicillin and 100 μg/mL streptomycin (Life Technologies). The cells were incubated with graded concentrations of the compounds for 18 h at 37° C., 5% CO2. After 18 h incubation, the cell culture supernatants were collected. LPS (100 ng/mL, L2654, E coli; B6, Sigma) or MPLA (1 μg/mL synthetic MPLA, Invivogen) were used as positive controls. The levels of IL-6 or IP-10 in the culture supernatants were determined by ELISA (BD Biosciences, La Jolla, Calif.).^5 Finally, all levels of cytokine release were normalized to those of LPSstimulation within each experiment, set at 100.

mBMDC [3] = assay: Co-stimulatory molecule expression in CD11c+ mBMDC (flow cytometry); type: cell-based, mouse; conditions: CD11c+ population
Experimental: FIG. 2. Compound 1a induces type I IFN and expression of co-stimulatory molecules. A) Human PBMC were incubated with compound 1a (10 μM), LPS (10 ng/mL), or vehicle overnight. The release of type I IFN in the culture supernatants was measured by luciferase release in L929-ISRE reporter cells. Data shown are mean±SEM of triplicates. B) Compound 1a- or vehicle-treated wild type or Tlr4^−/−mBMDC were stained for CD11c and either CD40, CD80, or CD86. The expression levels of CD40, CD80, or CD86 were evaluated in the gated CD11c^+ population. DMSO 0.5% served as the vehicle control. C) Human PBMC were incubated with compound 1a (5 μM) overnight. CD80 and CD83 expression in gated CD11c^+ HLA-DR^+ population was analyzed by flow cytometer. Data are representative of two independent experiments showing similar results.
To evaluate whether treatment of DCs with this compound can induce maturation in these cells, mBMDC prepared from wild type or TLR4 deficient mice were exposed to compound 1a and then assayed for expression of co-stimulatory molecules CD40, CD80, and CD86 in the CD11c+ population (FIG. 2B). […] Induction of co-stimulatory molecules by compound 1a was also confirmed in human PBMC.

TLR4/MD-2/CD14 = molecular target: T1, TLR4/MD-2/CD14 (Homo sapiens, UniProt O00206+Q9Y6Y9); assay: hTLR4 HEK Blue reporter cells, NF-κB SEAP secretion (QuantiBlue OD630); type: cell-based
T1 construct: host or cells: HEK293 (HEK Blue hTLR4)
Experimental: In vitro assays using TLR reporter cell lines. Murine or humanTLR4 HEK Blue™ cells (Invivogen, 2.5×10^4 cells per well of a 96 well plate), or NF-κB/SEAPorter™ HEK 293 cells (Imgenex, San Diego, Calif.) for human TLR2, TLR3, TLR5, TLR7, TLR8, or TLR9 (5×10^4 cells per well of 96 well plate) were incubated with graded doses of the test compound. The culture supernatants were harvested after a 20-24 h incubation period. Secreted alkaline phosphatase (SEAP) activity in the supernatants was determined by a colorimetric assay, using either the SEAPorter Assay Kit (Imgenex, San Diego, Calif.), with absorbance read at 405 nm, or QuantiBlue (Invivogen), with absorbance read at 630 nm. In some experiments, graded concentrations of LPS-RS ([…], Invivogen) were used to test TLR4-specific binding of the hit compound.

human PBMC [4] = assay: Type I IFN release by hPBMC measured in L929-ISRE luciferase reporter cells; type: cell-based; conditions: 10 μM, overnight; LPS 10 ng/mL comparator
Experimental: Type I interferon (IFN) assay. L929 cells stably expressing an IFN sensitive response element (ISRE) luciferase reporter construct were kindly provided by Dr. B. Beutler (UT Southwestern, Dallas, Tex.)^7. The bioactivity oftype I IFN in hPBMC supernatants was measured by luciferase assay using L929-ISRE cells as described previously.^7 L929-ISRE cells were plated at 5×10^4 cells per well inDulbecco's Modified Eagle Medium (Life Technologies) supplemented with 10% FCS, 100 U/mL penicillin and 100 μg/mL streptomycinin a 96-well white-walled clear-bottom plate and incubated overnight. Thus, 50 μL of supernatant was incubated with L929-ISRE cells in 50 μL of DMEM for 6 h. The luciferase activities were measured by GloBrightLuciferase Assay Buffer (Promega, Madison, Wis.).

T1 sequence (O00206 24-839): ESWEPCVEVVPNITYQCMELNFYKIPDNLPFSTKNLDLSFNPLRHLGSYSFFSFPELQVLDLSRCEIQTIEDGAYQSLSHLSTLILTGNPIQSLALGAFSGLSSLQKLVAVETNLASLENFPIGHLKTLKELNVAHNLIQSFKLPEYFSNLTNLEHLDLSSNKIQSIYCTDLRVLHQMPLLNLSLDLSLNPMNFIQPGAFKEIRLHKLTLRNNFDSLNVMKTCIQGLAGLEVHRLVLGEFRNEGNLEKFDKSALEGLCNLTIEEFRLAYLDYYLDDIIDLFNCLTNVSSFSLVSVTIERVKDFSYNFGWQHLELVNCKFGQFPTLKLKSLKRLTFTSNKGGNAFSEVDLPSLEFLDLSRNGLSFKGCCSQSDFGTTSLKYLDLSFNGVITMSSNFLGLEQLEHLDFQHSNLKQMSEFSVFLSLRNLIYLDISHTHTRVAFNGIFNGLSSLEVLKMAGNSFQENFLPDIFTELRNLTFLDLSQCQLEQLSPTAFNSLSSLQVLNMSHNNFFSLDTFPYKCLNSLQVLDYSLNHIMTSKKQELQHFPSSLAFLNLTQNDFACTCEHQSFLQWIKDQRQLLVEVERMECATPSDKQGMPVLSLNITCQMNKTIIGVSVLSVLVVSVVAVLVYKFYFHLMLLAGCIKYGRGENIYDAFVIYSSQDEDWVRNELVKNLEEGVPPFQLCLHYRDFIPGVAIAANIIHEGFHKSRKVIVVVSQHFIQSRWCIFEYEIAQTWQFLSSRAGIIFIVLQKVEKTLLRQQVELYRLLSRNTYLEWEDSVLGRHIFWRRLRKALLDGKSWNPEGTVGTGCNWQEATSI
T1 sequence (Q9Y6Y9 19-160): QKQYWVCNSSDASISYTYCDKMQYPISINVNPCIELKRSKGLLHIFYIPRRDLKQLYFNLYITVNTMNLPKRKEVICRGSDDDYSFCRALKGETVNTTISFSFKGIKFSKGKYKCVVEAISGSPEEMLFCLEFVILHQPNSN

CCOC(=O)c1nc(Nc2cc(Oc3ccccc3)cc([N+](=O)[O-])c2)c2ccccc2n1 [Compound 1a, Ethyl 4-((3-nitro-5-phenoxyphenyl)amino)quinazoline-2-carboxylate]
Viability by MTT assay (mouse BMDC): 117±2.6%
IL-8 release (% of LPS control) at 0.5 µM (human PBMC [1]; Homo sapiens, PBMC, 18 h, 0.5 μM, IL-8 release, normalized to LPS positive control=100): 22.2%
Concentration inducing detectable levels of IL-8 (human PBMC [1]; hPBMC, graded concentrations): below 1 μM
IL-8 release in presence of polymyxin B (human PBMC [1]; polymyxin B 10 μg/mL, overnight): not reduced
Dependence of IL-6 production on CD14 and MD-2 (mBMDC [2]; 10 μM, mBMDC genetically deficient for CD14 or MD-2): not to be dependent on CD14, but dependent on MD-2
IL-6 secretion induced in mBMDC on genetic disruption of TLR4 (mBMDC [2]; 10 μM, wild type vs TLR4 deficient mice): completely abrogated
Concentration inducing detectable levels of IL-6 (mBMDC [2]; mBMDC, graded concentrations, compared with IL-8 in hPBMC): higher concentrations were required
Expression of co-stimulatory molecules CD40, CD80, CD86 (mBMDC [3]; TLR4 deficient mBMDC): not in the TLR4 deficient cells
Expression of co-stimulatory molecules CD40, CD80, CD86 (mBMDC [3]; wild type mBMDC): increased
hTLR4 0.5 μM (TLR4/MD-2/CD14; 0.5 μM, Quantiblue OD630 of hTLR4 HEK Blue cells, normalized to LPS positive control=100): 49.1
NF-κB activation induced by compound in presence of competitive antagonist LPS-RS (TLR4/MD-2/CD14; 10 μM compound, LPS-RS 12, 111, 1000 ng/mL, dose dependent): inhibited
Release of type I IFN (human PBMC [4]): comparable to that of LPS
